Key:
[1] = Tmax in healthy human at 25 mg, qd for 10 days administered as suspension measured after last dose; format: ADME, organism-based; settings: in vivo
[2] = Cmax in healthy human at 50 mg administered as single dose suspension; format: ADME, organism-based; set-up: dose 50 mg; settings: in vivo
[3] = Cmax in healthy human at 5 mg administered as single dose suspension; format: ADME, organism-based; set-up: dose 5 mg; settings: in vivo
[4] = tested on: Homo sapiens; assay: Toxicity in healthy human assessed as incidence of drug related incidence of pharyngolaryngeal pain at 25 mg, qd for 10 days administered as suspension measured after last dose; format: organism-based; settings: in vivo, 240 h
[5] = tested on: Homo sapiens; assay: Toxicity in healthy human assessed as incidence of drug related incidence of somnolence at 25 mg administered as single dose suspension; format: organism-based; settings: in vivo
[6] = Apparent oral clearance in healthy human at 10 mg administered as single dose suspension; format: ADME, organism-based; settings: in vivo
[7] = AUC (0-t) in healthy human at 5 mg administered as single dose suspension; format: ADME, organism-based; settings: plasma
[8] = AUC (0-t) in healthy human at 100 mg administered as single dose suspension; format: ADME, organism-based; settings: plasma
[9] = tested on: Homo sapiens; assay: Toxicity in healthy human assessed as incidence of drug related incidence of pruritis at 25 mg, qd for 10 days administered as suspension measured after last dose; format: organism-based; settings: in vivo, 240 h
[10] = Half life in healthy human at 10 mg administered as single dose suspension; format: ADME, organism-based; settings: in vivo
[11] = Apparent oral clearance in healthy human at 100 mg administered as single dose suspension; format: ADME, organism-based; settings: in vivo
[12] = tested on: Homo sapiens; assay: Toxicity in healthy human assessed as incidence of drug related incidence of pruritis at 10 mg, qd for 10 days administered as suspension measured after last dose; format: organism-based; settings: in vivo, 240 h
[13] = tested on: Homo sapiens; assay: Toxicity in healthy human assessed as incidence of drug related incidence of headache at 25 mg, qd for 10 days administered as suspension measured after last dose; format: organism-based; settings: in vivo, 240 h
[14] = Tmax in healthy human at 50 mg, qd for 10 days administered as suspension measured after last dose; format: ADME, organism-based; settings: in vivo
[15] = Cmax in healthy human at 50 mg, qd for 10 days administered as suspension measured after last dose; format: ADME, organism-based; set-up: dose 50 mg; settings: in vivo
[16] = Half life in healthy human at 50 mg administered as single dose suspension; format: ADME, organism-based; settings: in vivo
[17] = AUC (0-t) in healthy human at 10 mg administered as single dose suspension; format: ADME, organism-based; settings: plasma
[18] = Drug level at 24 hrs in healthy human at 5 mg administered as single dose suspension; format: ADME, organism-based; settings: in vivo, read-out: Drug uptake
[19] = tested on: Homo sapiens; assay: Toxicity in healthy human assessed as incidence of drug related incidence of pruritis at 25 mg, qd for 10 days administered as suspension measured after last dose coadministered with 3 mg CYP3A4 probe midazolam; format: organism-based; settings: in vivo, 240 h
[20] = Drug level at 24 hrs in healthy human at 100 mg administered as single dose suspension; format: ADME, organism-based; settings: in vivo, read-out: Drug uptake
[21] = tested on: Homo sapiens; assay: Toxicity in healthy human assessed as incidence of drug related incidence of pharyngolaryngeal pain at 10 mg, qd for 10 days administered as suspension measured after last dose; format: organism-based; settings: in vivo, 240 h
[22] = Tmax in healthy human at 10 mg administered as single dose suspension; format: ADME, organism-based; settings: in vivo
[23] = tested on: Homo sapiens; assay: Toxicity in healthy human assessed as incidence of drug related incidence of headache at 10 mg, qd for 10 days administered as suspension measured after last dose; format: organism-based; settings: in vivo, 240 h
[24] = Drug level at 24 hrs in healthy human at 50 mg administered as single dose suspension; format: ADME, organism-based; settings: in vivo, read-out: Drug uptake
[25] = Tmax in healthy human at 10 mg, qd for 10 days administered as suspension measured after last dose; format: ADME, organism-based; settings: in vivo
[26] = Cmax in healthy human at 2 mg administered as single dose suspension; format: ADME, organism-based; set-up: dose 2 mg; settings: in vivo
[27] = Tmax in healthy human at 2 mg administered as single dose suspension; format: ADME, organism-based; settings: in vivo
[28] = AUC (0-tau) in healthy human at 10 mg, qd for 10 days administered as suspension measured after last dose; format: ADME, organism-based; settings: plasma
[29] = Apparent oral clearance in healthy human at 2 mg administered as single dose suspension; format: ADME, organism-based; settings: in vivo
[30] = Half life in healthy human at 25 mg administered as single dose suspension; format: ADME, organism-based; settings: in vivo
[31] = AUC (0-tau) in healthy human at 50 mg, qd for 10 days administered as suspension measured after last dose; format: ADME, organism-based; settings: plasma
[32] = AUC (0-infinity) in healthy human at 100 mg administered as single dose suspension; format: ADME, organism-based; set-up: dose 100 mg, time infinity; settings: plasma
[33] = tested on: Homo sapiens; assay: Toxicity in healthy human assessed as incidence of drug related incidence of headache at 50 mg, qd for 10 days administered as suspension measured after last dose; format: organism-based; settings: in vivo, 240 h
[34] = tested on: Homo sapiens; assay: Toxicity in healthy human assessed as incidence of drug related incidence of pharyngolaryngeal pain at 25 mg, qd for 10 days administered as suspension measured after last dose coadministered with 3 mg CYP3A4 probe midazolam; format: organism-based; settings: in vivo, 240 h
[35] = tested on: Homo sapiens; assay: Toxicity in healthy human assessed as incidence of adverse events at 2 to 100 mg administered as single dose suspension; format: organism-based; settings: in vivo
[36] = AUC (0-infinity) in healthy human at 50 mg administered as single dose suspension; format: ADME, organism-based; set-up: dose 50 mg, time infinity; settings: plasma
[37] = Drug level in healthy human at 25 mg, qd for 10 days administered as suspension measured after last dose; format: ADME, organism-based; settings: in vivo, read-out: Drug uptake

Work on `C[C@@H]1CCO[C@H]2Cn3cc(C(=O)NCc4ccc(F)cc4F)c(=O)c([O-])c3C(=O)N12.[Na+]` [DOLUTEGRAVIR SODIUM] yielded a Tmax [1] of 1 h, a Cmax [2] of 4560 ng/mL and a Cmax [3] of 661 ng/mL. It also gave an Activity [4] of 0%, an Activity [5] of 0% and a CL/F [6] of 11.5 mL/min. It also gave an AUC(0-t) [7] of 8540 ng·h/mL, an AUC(0-t) [8] of 131000 ng·h/mL and an Activity [9] of 0%. The half-life [10] was 12.7 h, the CL/F [11] was 12.3 mL/min and the Activity [12] was 0%. It also gave an Activity [13] of 0%, a Tmax [14] of 1 h and a Cmax [15] of 6160 ng/mL. For the same compound, the half-life [16] was 14.2 h, the AUC(0-t) [17] was 14300 ng·h/mL and the concentration at 24 h [18] was 126 ng/mL. It also gave an Activity [19] of 0%, a concentration at 24 h [20] of 1800 ng/mL and an Activity [21] of 0%. It also gave a Tmax [22] of 0.63 h, an Activity [23] of 0% and a concentration at 24 h [24] of 1060 ng/mL. For the same compound, the Tmax [25] was 0.5 h, the Cmax [26] was 231 ng/mL and the Tmax [27] was 0.63 h. The AUC tau at 240 h [28] was 16700 ng·h/mL, the CL/F [29] was 12 mL/min and the half-life [30] was 12.7 h. The AUC tau at 240 h [31] was 76800 ng·h/mL, the AUC(0-inf) [32] was 136000 ng·h/mL and the Activity [33] was 22%. For the same compound, the Activity [34] was 0%, the Activity [35] was “Non-toxic” and the AUC(0-inf) [36] was 73200 ng·h/mL. The concentration at 240 h [37] was 840 ng/mL.

From ChEMBL document CHEMBL1212763, “Pharmacokinetics and safety of S/GSK1349572, a next-generation HIV integrase inhibitor, in healthy volunteers” (Antimicrob Agents Chemother, 2010)
